Measured values reported in patent US10258602B2 (Ocera Therapeutics, Inc., priority 2007, dated 2019).

System: rat stomach fundus strips
Description: Fundus strips (approximately 0.4×1 cm) were cut from the stomach of adult male Wistar rats parallel to the circular muscle fibers. They were placed between two platinum ring electrodes, 1 cm apart (Radnoti, ADInstruments, USA) in 10 ml tissue baths containing Krebs solution bubbled with 5% CO2 in O2 and maintained at 37° C. Tissues were suspended under 1.5 g resting tension. Changes of tension were measured isometrically with force transducers and recorded with a PowerLab 8/30 data acquisition system (ADInstruments, USA). Tissues were allowed to equilibrate for 60 min during which time bath solutions were changed every 15 min.
EFS was achieved by applying 0.5 ms pulses, 5 Hz frequency, at a maximally effective voltage of 70 V. EFS was applied for 30 sec at 3 min intervals for a 30 min initial period. This initial period was separated by a 5 min interval with wash out of the bath solution. Then, a second period of stimulation was started. […] Responses to the agents were measured and expressed as % of the mean of three or four pre-drug responses to EFS. All compounds were dissolved at 1 mM in distilled water or MeOH, as stock solutions.

EC50: 5 nM
Compound: CCCCCCCC(=O)OC[C@H](NC(=O)[C@H](CO)NC(=O)CN)C(=O)N[C@@H](Cc1ccccc1)C(=O)N[C@@H](CC(C)C)C(=O)N[C@@H](CO)C(=O)N1CCC[C@H]1C(=O)N[C@@H](CCC(=O)O)C(=O)N[C@@H](Cc1c[nH]cn1)C(=O)N[C@@H](CCC(N)=O)C(=O)N[C@@H](CCCNC(=N)N)C(=O)N[C@H](C(=O)N[C@@H](CCC(N)=O)C(=O)N[C@@H](CCC(N)=O)C(=O)N[C@@H](CCCNC(=N)N)C(=O)N[C@@H](CCCCN)C(=O)N[C@@H](CCC(=O)O)C(=O)N[C@@H](CO)C(=O)N[C@@H](CCCCN)C(=O)N[C@@H](CCCCN)C(=O)N1CCC[C@H]1C(=O)N1CCC[C@H]1C(=O)N[C@@H](C)C(=O)N[C@@H](CCCCN)C(=O)N[C@@H](CC(C)C)C(=O)N[C@@H](CCC(N)=O)C(=O)N1CCC[C@H]1C(=O)N[C@@H](CCCNC(=N)N)C(=O)O)C(C)C [Ghrelin]
